Measured values from patent publication US20150025077A1 (COYOTE PHARMACEUTICALS, INC., priority 2012, published 2015).

Tests used:
RhoA = experiment: Active RhoA to total RhoA in Neuro2A cells (G-LISA, ELISA); type: cell-based, mouse; details: 48 hrs treatment, ratio of active RhoA to total RhoA as percentage of DMSO treatments, concentration not given
Method: Mouse neuroblastoma Neuro2A cells were cultured in DMEM supplemented with 10% FBS for 24 hrs. […] Cell lysates were quantified and subjected either to active RhoA assay using G-LISA RhoA activation Assay Biochem Kit (Cytoskeleton Inc), or to total RhoA assay using Total RhoA ELISA Kit (Cytoskeleton Inc). The results were calculated as ratio of active RhoA to total RhoA and averaged from 3 biological repeats of one experiment with background subtraction. The data was presented as percentage of DMSO treatments.

HSP70 = HSP70 levels in Neuro 2a cells, ELISA; type: cell-based, mouse; details: 48 hrs compound then 24 hrs GGTI-298
Method: Mouse neuroblastoma 2a cells were cultured in DMEM with 10% FBS for 24 hrs. […] After 24 hrs cells were harvested and lysates were prepared and analyzed by ELISA for HSP70. Compound ID numbers in table refer to structures in Table 1 and Table 2.

Rap1 = experiment: Prenylation of Rap1 in Neuro2A cells, western blotting; type: cell-based, mouse; details: 100 nM; with GGTI-298; percentage of control (GGTI only)
Method: Mouse neuroblastoma Neuro2A cells were cultured in DMEM supplemented with 10% FBS for 24 hrs. The cells were treated with 102GGA derivative compounds for 24 hrs first before GGTase inhibitor GGTI-298 was added to the culture medium for additional 24 hr incubation. […] Both un-prenylated and total Rap1 protein bands were quantified using Image J and normalized to their respective loading control GAPDH. The results for control and each compound treatment were calculated as the ratio of normalized un-prenylated Rap1 to total Rap1, and averaged from two biological repeats of one experiment. The final results were presented as a percentage of the control treatments (GGTI only) from the same batch experiment. The data shown in the chart were averaged from two repeats of one experiment and presented as the ratio of normalized un-prenylated Rap1 to total Rapt Compound ID numbers in table refer to structures in Table 1 and Table 2.

Sprague Dawley rats = experiment: Kainic acid stereotactic hippocampus injection model, fraction of cells damaged; type: in vivo, rat; details: KA at 72 hours
Method: CNS-102 was administered orally to Sprague Dawley rats at 12 mg/kg. After dosing, KA was stereotactically injected into the hippocampus at 24, 48, 72, 96 and 168 hours to induce neuron damage. After 24 h, hippocampus tissue was collected, stained, and imaged. The scans were analyzed by Image J to calculate the fraction of cells having KA-induced damage. Average fraction damaged in the hippocampus from ten animals for each treatment (PBS vs. 12 mg/kg CNS-102) by time (24, 48, 72, 96 and 168 hours) combination was estimated with PROC MIXED in SAS. Comparisons of the CNS-102 treatment groups to the pooled PBS treatment at the different times can be made, giving the results tabulated below.
The fraction of cells damaged in the kainic acid model was determined on 130 rats, each receiving one dose of CNS-102 at either 0, 1, 3, 6, 12 or 24 mg/kg. PBS was used for dosing at 0 mg/kg. The linear model of the log10 percent damage versus concentration is graphically shown FIG. 5.
After dosing, KA was stereotactically injected into the hippocampus at 72 hours to induce neuron damage. After 24 h, hippocampus tissue was collected, stained, and imaged. The scans were analyzed by Image J to calculate the fraction of cells having KA-induced damage.
The indicated compounds or vehicle control were orally dosed to Sprague-Dawley rats, and Kainic acid was injected. After dosing, KA was stereotactically injected into the hippocampus at 72 hours to induce neuron damage. After 24 h, hippocampus tissue was collected, stained, and imaged. The scans were analyzed by Image J to calculate the fraction of cells having KA-induced damage. Neurons damaged by Kainic acid (mean of hippocampus CA3 neurons damaged) were quantified.

| Compound | % Relative RhoGTPase Activity (RhoA) | HSP70 level, ELISA signal (absence of compounds normalized as 1.00) (HSP70; 100 nM) | unprenylated/total RAP1 (%) (Rap1) | HSP70 level, ELISA signal (absence of compounds normalized as 1.00) (HSP70; 10uM) | also measured |
| --- | --- | --- | --- | --- | --- |
| CCOc1cc(OCC)cc(C(=O)OC/C=C(\C)CC/C=C(\C)CC/C=C(\C)CCC=C(C)C)c1 [Compound 2i, 2E, 6E, 10E-Geranylgeranyl-3′,5′-diethoxybenzoate] | 105.0% | 1.08 | 92% |  |  |
| CCCCCCNC(=O)OC/C=C(\C)CC/C=C(\C)CC/C=C(\C)CCC=C(C)C [Compound 7e, n-Hexyl 2E,6E,10E-geranylgeranyl carbamate] |  |  | 64% |  | Mean of Hippocampus CA3 Neurons Damaged (Sprague Dawley rats; 12 mg/kg oral): 18% |
| COC(=O)[C@@H](NC(=O)OC/C=C(\C)CC/C=C(\C)CC/C=C(\C)CCC=C(C)C)C(C)C [Compound 7j, Methyl 2-(S)-(−)-3-methylbutyrate 2E,6E,10E-geranylgeranyl Carbamate] |  |  | 63% |  | Mean of Hippocampus CA3 Neurons Damaged (Sprague Dawley rats; 1 mg/kg oral): 13% |
| CC(C)=CCC/C(C)=C/CC/C(C)=C/CC/C(C)=C/COC(=O)Nc1ccc(C(F)(F)F)cc1 [Compound 7q, p-Trifluoromethylphenyl 2E, 6E, 10E-geranylgeranyl carbamate] | 83.5% |  | 48% |  | HSP70 level, ELISA signal (absence of compounds normalized as 1.00) (HSP70; 10 nM): 1.01 |
| CC(C)=CCC/C(C)=C/CC/C(C)=C/CC/C(C)=C/COC(=O)Nc1ccc2ccccc2c1 [Compound 7s, 2′-Naphthyl 2E, 6E, 10E-geranylgeranyl carbamate] | 86.9% |  | 89% | 1.10 |  |
| COc1ccc(NC(=O)OC/C=C(\C)CC/C=C(\C)CC/C=C(\C)CCC=C(C)C)c(OC)c1 [Compound 7w, 2′,4′-Dimethoxyphenyl 2E, 6E, 10E-geranylgeranyl carbamate] | 94.4% | 1.14 | 77% |  |  |
| CC(C)=CCC/C(C)=C/CC/C(C)=C/CC/C(C)=C/COC(=O)Nc1cc(Cl)c(Cl)c(Cl)c1 [Compound 7y, 3′,4′,5′-Trichlorophenyl 2E, 6E, 10E-geranylgeranyl carbamate] | 94.4% |  | 68% | 1.13 |  |
| CC(C)=CCC/C(C)=C/CC/C(C)=C/COC(=O)NC1CCCCC1 [Compound 8f, Cyclohexyl 2E, 6E-farnesyl carbamate] | 104.6% |  |  | 1.29 |  |
| CCC(C)NC(=O)OC/C=C(\C)CC/C=C(\C)CCC=C(C)C (stereo not drawn) [Compound 8g, Sec-Butyl 2E, 6E-farnesyl carbamate] | 111.3% |  |  | 1.51 | HSP70 level, ELISA signal (absence of compounds normalized as 1.00) (HSP70; 10 nM): 1.17 |
| C=CCNC(=O)OC/C=C(\C)CC/C=C(\C)CCC=C(C)C [Compound 8j, Allyl 2E, 6E-farnesyl carbamate] | 105.6% |  |  | 1.31 | HSP70 level, ELISA signal (absence of compounds normalized as 1.00) (HSP70; 10 nM): 1.13 |
| CCOC(=O)CCNC(=O)OC/C=C(\C)CC/C=C(\C)CCC=C(C)C [Compound 8m, Carboethoxy-2′-ethyl 2E, 6E-farnesyl carbamate] | 111.4% |  |  | 1.05 |  |
| CC(C)=CCC/C(C)=C/CC/C(C)=C/COC(=O)Nc1ccccc1 [Compound 8o, Phenyl 2E, 6E-farnesyl carbamate] | 82.1% |  |  | 0.99 |  |
| CCNC(=S)OC/C=C(\C)CC/C=C(\C)CC/C=C(\C)CCC=C(C)C [Compound 10b, Ethyl 2E,6E,10E-geranylgeranyl thiocarbamate] | 86.2% | 1.06 |  | 1.34 |  |
| CCOC(=O)CNC(=S)OC/C=C(\C)CC/C=C(\C)CC/C=C(\C)CCC=C(C)C [Compound 10d, Ethoxycarbonylmethyl 2E,6E,10E-geranylgeranyl thiocarbamate] |  |  | 62% | 1.36 | Mean of Hippocampus CA3 Neurons Damaged (Sprague Dawley rats; 2 mg/kg oral): 14% |
| CC(C)=CCC/C(C)=C/CC/C(C)=C/CC/C(C)=C/COC(=S)NC1CC1 [Compound 10f, Cyclopropyl 2E,6E,10E-geranylgeranyl thiocarbamate] |  |  | 40% | 1.57 | Mean of Hippocampus CA3 Neurons Damaged (Sprague Dawley rats; 20 mg/kg oral): 16% |
| COCCNC(=S)OC/C=C(\C)CC/C=C(\C)CC/C=C(\C)CCC=C(C)C [Compound 10i, Methoxy-2′-ethyl 2E,6E,10E-geranylgeranyl thiocarbamate] |  | 1.04 | 83% | 1.08 | Mean of Hippocampus CA3 Neurons Damaged (Sprague Dawley rats; 2 mg/kg oral): 22% |
| CC(C)=CCC/C(C)=C/CC/C(C)=C/CC/C(C)=C/COC(=S)NCCN1CCCCC1 [Compound 10l, Piperidinyl-2′-ethyl 2E,6E,10E-geranylgeranyl thiocarbamate] |  | 1.16 | 164% | 1.37 | Mean of Hippocampus CA3 Neurons Damaged (Sprague Dawley rats; 20 mg/kg oral): 14% |
| CC(C)=CCC/C(C)=C/CC/C(C)=C/CC/C(C)=C/c1cnco1 [Compound 14, 5-((1E,5E,9E)-2,6,10,14-tetramethylpentadeca-1,5,9,13-tetraen-1-yl)oxazole] |  |  | 96% | 0.96 | Mean of Hippocampus CA3 Neurons Damaged (Sprague Dawley rats; 2 mg/kg oral): 13% |
| COC(=O)[C@@H](NC(=O)OC(C)CC/C=C(\C)CC/C=C(\C)CCC=C(C)C)C(C)C (stereo partly drawn) [Compound 20j, 5E,9E-farnesyl prop-2-yl Methyl 2-(S)-(−)-3-methylbutyrate Carbamate] | 85.9% |  | 59% |  |  |
| CC(C)=CCC/C(C)=C/CC/C(C)=C/CC/C(C)=C/C1=N[C@@H](C(C)C)CO1 [Compound 27a, (S)-4-isopropyl-2-((1E,5E,9E)-2,6,10,14-tetramethylpentadeca-1,5,9,13-tetraen-1-yl)-4,5-dihydrooxazole] |  | 1.02 | 96% |  | Mean of Hippocampus CA3 Neurons Damaged (Sprague Dawley rats; 2 mg/kg oral): 11% |
| CC(C)=CCC/C(C)=C/CC/C(C)=C/CC/C(C)=C/C1=N[C@@H](C)CO1 [Compound 27b, (S)-4-methyl-2-((1E,5E,9E)-2,6,10,14-tetramethylpentadeca-1,5,9,13-tetraen-1-yl)-4,5-dihydrooxazole] | 89.0% | 1.16 |  | 1.22 |  |
| CC(C)=CCC/C(C)=C/CC/C(C)=C/CC/C(C)=C/C1=N[C@H](C(C)C)C(=O)O1 [Compound 37a, (R)-4-isopropyl-2-((1E,5E,9E)-2,6,10,14-tetramethylpentadeca-1,5,9,13-tetraen-1-yl)oxazol-5(4H)-one] | 106.8% | 1.04 |  | 1.10 |  |
| CNC(=S)OC/C=C(\C)CC/C=C(\C)CCC=C(C)C [Compound 43, O-((2E,6E)-3,7,11-trimethyldodeca-2,6,10-trien-1-yl) methylcarbamothioate] | 102.7% |  |  | 0.95 |  |
| CC(C)=CCC/C(C)=C/CC/C(C)=C/CC/C(C)=C/CCC1(C)OCCO1 [Compound 105] | 85.1% |  | 64% |  |  |
